Experimental data published in ChEMBL document CHEMBL1275550, “In vitro activity of doripenem, a carbapenem for the treatment of challenging infections caused by gram-negative bacteria, against recent clinical isolates from the United States” (2008).
In brackets after ≈: the same amount, converted by molar mass.

How the values were obtained:
Proteus mirabilis [1] = assay: Antimicrobial activity against Non-ESBL Proteus mirabilis assessed as susceptible isolate by broth microdilution method; type: functional
Klebsiella pneumoniae [2] = assay: Antimicrobial activity against ESBL producing Klebsiella pneumoniae assessed as resistant isolate by broth microdilution method; type: functional
Serratia marcescens [3] = assay: Antimicrobial activity against Ceftazidime susceptible Serratia marcescens assessed as intermediate isolate by broth microdilution method; type: functional
Proteus mirabilis [4] = assay: Antimicrobial activity against ESBL producing Proteus mirabilis assessed as intermediate isolate by broth microdilution method; type: functional
Klebsiella pneumoniae [5] = assay: Antimicrobial activity against ESBL producing Klebsiella pneumoniae assessed as susceptible isolate by broth microdilution method; type: functional
Citrobacter [6] = assay: Antimicrobial activity against Citrobacter with derepressed AmpC beta-lactamsae by broth microdilution method; type: functional
Klebsiella pneumoniae [7] = assay: Antimicrobial activity against Non-ESBL Klebsiella pneumoniae by broth microdilution method; type: functional
Citrobacter [8] = assay: Antimicrobial activity against Citrobacter with nonderepressed AmpC beta-lactamsae by broth microdilution method; type: functional
Pseudomonas aeruginosa [9] = assay: Antimicrobial activity against imipenem non-susceptible Pseudomonas aeruginosa assessed as resistant isolate by broth microdilution method; type: functional
Pseudomonas aeruginosa [10] = assay: Antimicrobial activity against imipenem susceptible Pseudomonas aeruginosa assessed as resistant isolate by broth microdilution method; type: functional
Acinetobacter [11] = assay: Antimicrobial activity against imipenem non-susceptible Acinetobacter assessed as resistant isolate by broth microdilution method; type: functional
Acinetobacter [12] = assay: Antimicrobial activity against imipenem susceptible Acinetobacter by broth microdilution method; type: functional
Enterobacteriaceae [13] = assay: Antimicrobial activity against Ceftazidime non-susceptible Enterobacteriaceae by broth microdilution method; type: functional
Proteus mirabilis [14] = assay: Antimicrobial activity against ESBL producing Proteus mirabilis by broth microdilution method; type: functional
Pseudomonas aeruginosa [15] = assay: Antimicrobial activity against Ceftazidime non-susceptible Pseudomonas aeruginosa assessed as resistant isolate by broth microdilution method; type: functional
Pseudomonas aeruginosa [16] = assay: Antimicrobial activity against Pseudomonas aeruginosa isolated from non-ICU patient by broth microdilution method
Klebsiella pneumoniae [17] = assay: Antimicrobial activity against Non-ESBL Klebsiella pneumoniae assessed as susceptible isolate by broth microdilution method; type: functional
Acinetobacter [18] = assay: Antimicrobial activity against imipenem non-susceptible Acinetobacter assessed as intermediate isolate by broth microdilution method; type: functional
Escherichia coli [19] = assay: Antimicrobial activity against Non-ESBL Escherichia coli assessed as susceptible isolate by broth microdilution method; type: functional
Klebsiella pneumoniae [20] = assay: Antimicrobial activity against ESBL producing Klebsiella pneumoniae by broth microdilution method; type: functional
Pseudomonas aeruginosa [21] = assay: Antimicrobial activity against Ceftazidime susceptible Pseudomonas aeruginosa by broth microdilution method; type: functional
Citrobacter [22] = assay: Antimicrobial activity against Citrobacter with nonderepressed AmpC beta-lactamsae assessed as intermediate isolate by broth microdilution method; type: functional
Klebsiella pneumoniae [23] = assay: Antimicrobial activity against Non-ESBL Klebsiella pneumoniae assessed as intermediate isolate by broth microdilution method; type: functional
Enterobacteriaceae [24] = assay: Antimicrobial activity against ceftazidime-susceptible Enterobacteriaceae assessed as susceptible isolate by broth microdilution method; type: functional
Proteus mirabilis [25] = assay: Antimicrobial activity against Non-ESBL Proteus mirabilis by broth microdilution method; type: functional
Citrobacter [26] = assay: Antimicrobial activity against Citrobacter with derepressed AmpC beta-lactamsae assessed as intermediate isolate by broth microdilution method; type: functional
Proteus mirabilis [27] = assay: Antimicrobial activity against Non-ESBL Proteus mirabilis assessed as intermediate isolate by broth microdilution method; type: functional
Acinetobacter [28] = assay: Antimicrobial activity against imipenem susceptible Acinetobacter assessed as intermediate isolate by broth microdilution method; type: functional
Citrobacter [29] = assay: Antimicrobial activity against Citrobacter with nonderepressed AmpC beta-lactamsae assessed as susceptible isolate by broth microdilution method; type: functional
Pseudomonas aeruginosa [30] = assay: Antimicrobial activity against Pseudomonas aeruginosa isolated from ICU patient assessed as resistant isolate by broth microdilution method
Pseudomonas aeruginosa [31] = assay: Antimicrobial activity against imipenem susceptible Pseudomonas aeruginosa assessed as susceptible isolate by broth microdilution method; type: functional
Serratia marcescens [32] = assay: Antimicrobial activity against Ceftazidime non-susceptible Serratia marcescens assessed as intermediate isolate by broth microdilution method; type: functional
Pseudomonas aeruginosa [33] = assay: Antimicrobial activity against Pseudomonas aeruginosa isolated from ICU patient assessed as intermediate isolate by broth microdilution method
Pseudomonas aeruginosa [34] = assay: Antimicrobial activity against imipenem non-susceptible Pseudomonas aeruginosa assessed as intermediate isolate by broth microdilution method; type: functional
Pseudomonas aeruginosa [35] = assay: Antimicrobial activity against Ceftazidime non-susceptible Pseudomonas aeruginosa assessed as intermediate isolate by broth microdilution method; type: functional
Klebsiella pneumoniae [36] = assay: Antimicrobial activity against ESBL producing Klebsiella pneumoniae assessed as intermediate isolate by broth microdilution method; type: functional
Serratia marcescens [37] = assay: Antimicrobial activity against Ceftazidime non-susceptible Serratia marcescens assessed as susceptible isolate by broth microdilution method; type: functional
Pseudomonas aeruginosa [38] = assay: Antimicrobial activity against Pseudomonas aeruginosa isolated from ICU patient by broth microdilution method; type: functional
Pseudomonas aeruginosa [39] = assay: Antimicrobial activity against Ceftazidime susceptible Pseudomonas aeruginosa assessed as susceptible isolate by broth microdilution method; type: functional
Escherichia coli [40] = assay: Antimicrobial activity against ESBL producing Escherichia coli by broth microdilution method; type: functional
Acinetobacter [41] = assay: Antimicrobial activity against imipenem non-susceptible Acinetobacter assessed as susceptible isolate by broth microdilution method; type: functional
Enterobacteriaceae [42] = assay: Antimicrobial activity against ceftazidime-susceptible Enterobacteriaceae assessed as intermediate isolate by broth microdilution method; type: functional
Acinetobacter [43] = assay: Antimicrobial activity against imipenem susceptible Acinetobacter assessed as resistant isolate by broth microdilution method; type: functional
Pseudomonas aeruginosa [44] = assay: Antimicrobial activity against Ceftazidime non-susceptible Pseudomonas aeruginosa assessed as susceptible isolate by broth microdilution method; type: functional
Pseudomonas aeruginosa [45] = assay: Antimicrobial activity against Ceftazidime susceptible Pseudomonas aeruginosa assessed as intermediate isolate by broth microdilution method; type: functional
Enterobacteriaceae [46] = assay: Antimicrobial activity against ceftazidime-susceptible Enterobacteriaceae assessed as resistant isolate by broth microdilution method; type: functional
Pseudomonas aeruginosa [47] = assay: Antimicrobial activity against Pseudomonas aeruginosa isolated from non-ICU patient assessed as resistant isolate by broth microdilution method
Enterobacteriaceae [48] = assay: Antimicrobial activity against Ceftazidime non-susceptible Enterobacteriaceae assessed as resistant isolate by broth microdilution method; type: functional
Escherichia coli [49] = assay: Antimicrobial activity against ESBL producing Escherichia coli assessed as resistant isolate by broth microdilution method; type: functional
Escherichia coli [50] = assay: Antimicrobial activity against ESBL producing Escherichia coli assessed as susceptible isolate by broth microdilution method; type: functional
Serratia marcescens [51] = assay: Antimicrobial activity against Ceftazidime non-susceptible Serratia marcescens by broth microdilution method; type: functional
Citrobacter [52] = assay: Antimicrobial activity against Citrobacter with derepressed AmpC beta-lactamsae assessed as susceptible isolate by broth microdilution method; type: functional
Enterobacteriaceae [53] = assay: Antimicrobial activity against Ceftazidime non-susceptible Enterobacteriaceae assessed as susceptible isolate by broth microdilution method; type: functional
Pseudomonas aeruginosa [54] = assay: Antimicrobial activity against Pseudomonas aeruginosa isolated from patient by broth microdilution method
Pseudomonas aeruginosa [55] = assay: Antimicrobial activity against imipenem non-susceptible Pseudomonas aeruginosa by broth microdilution method; type: functional
Acinetobacter [56] = assay: Antimicrobial activity against imipenem non-susceptible Acinetobacter by broth microdilution method; type: functional
Escherichia coli [57] = assay: Antimicrobial activity against ESBL producing Escherichia coli assessed as intermediate isolate by broth microdilution method; type: functional
Acinetobacter [58] = assay: Antimicrobial activity against imipenem susceptible Acinetobacter assessed as susceptible isolate by broth microdilution method; type: functional
Serratia marcescens [59] = assay: Antimicrobial activity against Ceftazidime susceptible Serratia marcescens assessed as susceptible isolate by broth microdilution method; type: functional
Pseudomonas aeruginosa [60] = assay: Antimicrobial activity against imipenem non-susceptible Pseudomonas aeruginosa assessed as susceptible isolate by broth microdilution method; type: functional
Pseudomonas aeruginosa [61] = assay: Antimicrobial activity against Pseudomonas aeruginosa isolated from ICU patient assessed as susceptible isolate by broth microdilution method
Enterobacteriaceae [62] = assay: Antimicrobial activity against Ceftazidime non-susceptible Enterobacteriaceae assessed as intermediate isolate by broth microdilution method; type: functional
Pseudomonas aeruginosa [63] = assay: Antimicrobial activity against Ceftazidime susceptible Pseudomonas aeruginosa assessed as resistant isolate by broth microdilution method; type: functional
Pseudomonas aeruginosa [64] = assay: Antimicrobial activity against Pseudomonas aeruginosa isolated from non-ICU patient by broth microdilution method; type: functional
Proteus mirabilis [65] = assay: Antimicrobial activity against ESBL producing Proteus mirabilis assessed as susceptible isolate by broth microdilution method; type: functional
Escherichia coli [66] = assay: Antimicrobial activity against Non-ESBL Escherichia coli assessed as intermediate isolate by broth microdilution method; type: functional
Pseudomonas aeruginosa [67] = assay: Antimicrobial activity against imipenem susceptible Pseudomonas aeruginosa assessed as intermediate isolate by broth microdilution method; type: functional

## CO/N=C(\C(=O)N[C@@H]1C(=O)N2C(C(=O)[O-])=C(C[N+]3(C)CCCC3)CS[C@H]12)c1csc(N)n1
Proteus mirabilis [1]
  Activity: 99.7%
Klebsiella pneumoniae [2]
  Activity: 29.5%
Serratia marcescens [3]
  Activity: 0%
Proteus mirabilis [4]
  Activity: 0%
Klebsiella pneumoniae [5]
  Activity: 68.2%
Citrobacter [6]
  MIC50: 1 µg/mL (≈ 2.08 µM)
  MIC90: 2 µg/mL (≈ 4.16 µM)
Klebsiella pneumoniae [7]
  MIC50: 0.03 µg/mL (≈ 0.0624 µM)
  MIC90: 0.06 µg/mL (≈ 0.125 µM)
Citrobacter [8]
  MIC50: 0.03 µg/mL (≈ 0.0624 µM)
  MIC90: 0.06 µg/mL (≈ 0.125 µM)
Pseudomonas aeruginosa [9]
  Activity: 10.6%
Pseudomonas aeruginosa [10]
  Activity: 2.2%
Acinetobacter [11]
  Activity: 64.7%
Acinetobacter [12]
  MIC50: 4 µg/mL (≈ 8.32 µM)
  MIC90: 32 µg/mL (≈ 66.6 µM)
Enterobacteriaceae [13]
  MIC50: 2 µg/mL (≈ 4.16 µM)
  MIC90: 32 µg/mL (≈ 66.6 µM)
Proteus mirabilis [14]
  MIC: 1 µg/mL (≈ 2.08 µM)
Pseudomonas aeruginosa [15]
  Activity: 26.4%
Pseudomonas aeruginosa [16]
  Activity: 86.8%
Klebsiella pneumoniae [17]
  Activity: 99.7%
Acinetobacter [18]
  Activity: 33.3%
Escherichia coli [19]
  Activity: 99.8%
Klebsiella pneumoniae [20]
  MIC50: 8 µg/mL (≈ 16.6 µM)
  MIC90: > 32 µg/mL
Pseudomonas aeruginosa [21]
  MIC50: 2 µg/mL (≈ 4.16 µM)
  MIC90: 8 µg/mL (≈ 16.6 µM)
Citrobacter [22]
  Activity: 0.2%
Klebsiella pneumoniae [23]
  Activity: 0.2%
Enterobacteriaceae [24]
  Activity: 99.8%
Proteus mirabilis [25]
  MIC50: 0.03 µg/mL (≈ 0.0624 µM)
  MIC90: 0.06 µg/mL (≈ 0.125 µM)
Citrobacter [26]
  Activity: 0%
Proteus mirabilis [27]
  Activity: 0.2%
Acinetobacter [28]
  Activity: 11.8%
Citrobacter [29]
  Activity: 99.6%
Pseudomonas aeruginosa [30]
  Activity: 6.5%
Pseudomonas aeruginosa [31]
  Activity: 90.7%
Serratia marcescens [32]
  Activity: 10%
Pseudomonas aeruginosa [33]
  Activity: 13.7%
Pseudomonas aeruginosa [34]
  Activity: 16.9%
Pseudomonas aeruginosa [35]
  Activity: 48.2%
Klebsiella pneumoniae [36]
  Activity: 2.3%
Serratia marcescens [37]
  Activity: 80%
Pseudomonas aeruginosa [38]
  MIC50: 4 µg/mL (≈ 8.32 µM)
  MIC90: 16 µg/mL (≈ 33.3 µM)
Pseudomonas aeruginosa [39]
  Activity: 95.2%
Escherichia coli [40]
  MIC50: 32 µg/mL (≈ 66.6 µM)
  MIC90: > 32 µg/mL
Acinetobacter [41]
  Activity: 2%
Enterobacteriaceae [42]
  Activity: 0%
Acinetobacter [43]
  Activity: 15.1%
Pseudomonas aeruginosa [44]
  Activity: 25.5%
Pseudomonas aeruginosa [45]
  Activity: 3.8%
Enterobacteriaceae [46]
  Activity: 0.1%
Pseudomonas aeruginosa [47]
  Activity: 5.1%
Enterobacteriaceae [48]
  Activity: 12%
Escherichia coli [49]
  Activity: 56.7%
Escherichia coli [50]
  Activity: 40%
Serratia marcescens [51]
  MIC50: 4 µg/mL (≈ 8.32 µM)
  MIC90: 16 µg/mL (≈ 33.3 µM)
Citrobacter [52]
  Activity: 100%
Enterobacteriaceae [53]
  Activity: 82.4%
Pseudomonas aeruginosa [54]
  Activity: 8.2%
Pseudomonas aeruginosa [55]
  MIC50: 8 µg/mL (≈ 16.6 µM)
  MIC90: 32 µg/mL (≈ 66.6 µM)
Acinetobacter [56]
  MIC50: 32 µg/mL (≈ 66.6 µM)
  MIC90: > 32 µg/mL
Escherichia coli [57]
  Activity: 3.3%
Acinetobacter [58]
  Activity: 73.1%
Serratia marcescens [59]
  Activity: 100%
Pseudomonas aeruginosa [60]
  Activity: 72.5%
Pseudomonas aeruginosa [61]
  Activity: 79.9%
Enterobacteriaceae [62]
  Activity: 5.6%
Pseudomonas aeruginosa [63]
  Activity: 1%
Pseudomonas aeruginosa [64]
  MIC50: 4 µg/mL (≈ 8.32 µM)
  MIC90: 16 µg/mL (≈ 33.3 µM)
Proteus mirabilis [65]
  Activity: 100%
Escherichia coli [66]
  Activity: 0.1%
Pseudomonas aeruginosa [67]
  Activity: 7%
